Reference: patent publication US20260272924A1, “ISOINDOLINE DERIVATIVE, BENZOINDOLE DERIVATIVE AND USE THEREOF” (SHANGHAI HELIOSON PHARMACEUTICAL CO., LTD., priority 2023, published 2026)
pIC50: −log10 of the molar value. Where two headings read alike, the source gives them in different places.

Experiments:
[1] = molecular target: T1, IKZF1 (Homo sapiens, UniProt Q13422+Q96SW2); assay: Protein degradation assay (In-Cell Western), IKZF1; assay type: cell-based; conditions: NCI-H929 cells, 24 hours
T1 construct: NCI-H929 cells were inoculated into a 96-well plate at 100,000 cells per well and cultured overnight; endogenous in cells; host or cells: NCI-H929
Experimental: (§1) NCI-H929 cells were inoculated into a 96-well plate at 100,000 cells per well and cultured overnight. Compounds at concentrations of 1600 nM, 400 nM, 100 nM, 25 nM, 6.25 nM, 1.56 nM, 0.39 nM, and 0.1 nM were dosed with duplicate wells, and the cells were incubated in an incubator at 37° C. for 24 hours. After the incubation, the supernatant was removed by centrifugation, and 150 μL of 4% paraformaldehyde was added. The cells were incubated at room temperature for 20 minutes, then, 200 μL of a washing solution (0.1% TritonX-100, Beyotime; ST1722) was added and incubated at room temperature on a shaker. After repeating the washing four times, 150 μL of a Licor INTERCEPT blocking solution (Lico, Cat No. 927-70001) was added, and the cells were incubated on a shaker at room temperature for 1.5 hours. Antibodies IKZF1 (Cell Signaling; Cat No. 14859S), IKZF3 (Cell Signaling; Cat No. 15103S), GSPT1 (Proteintech, Cat No. 10763-1-AP), CK1a (Thermo; 7117067), and SALL4 (Abcam, ab22675) were diluted with an antibody dilution solution (Intercept Blocking Buffer, LI-COR, 211114) at 1:100 and 50 μL of each diluted primary antibody was added into the 96-well plate. The cells were incubated overnight on a shaker at 4° C. After the primary antibodies were removed and repeated washing was performed with PBST for 4 times, 50 μL of a diluted secondary antibody (Licor, Cat No. 926-68070) was added, and IRDye 800CW and IRDye 680CW were added at 0.5 μL simultaneously. The secondary antibody was sucked away, PBST was added, repeated washing was performed on a shaker at room temperature for 4 times, and a signal intensity was detected using an infrared laser imaging system (Lico, Odyssey-CLx).

[2] = molecular target: T2, IKZF3 (Homo sapiens, UniProt Q96SW2+Q9UKT9); assay: Protein degradation assay (In-Cell Western), IKZF3; assay type: cell-based; conditions: NCI-H929 cells, 24 hours
T2 construct: endogenous in cells; host or cells: NCI-H929
Experimental: as §1

[3] = tested on: NCI-H929 multiple myeloma cells; assay: Cell Titer-GLO (CTG) assay for proliferation of NCI-H929 cells; assay type: cell-based; conditions: Homo sapiens, 72 hours
How it was run: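 NCI-H929 cells, 5000/well, treated next day with compound from 0.00512 to 400 nM (5-fold steps, duplicates) for 72 h at 37° C. Viability by CellTiter-Glo luminescence, normalised to 0.1% DMSO and medium blank; IC50 and maximal inhibition from nonlinear dose-response regression.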

[4] = patients, literature; cited from earlier work
[5] = molecular target: T3, CRBN (Homo sapiens, UniProt Q96SW2); assay: CRBN binding assay (HTRF competition)
T3 construct: purchased Cisbio 64BDCRBNPEG
From the text: Bonding activity between CRBN and compounds were detected by the HTRF competition assay using a CRBN binding kit (Cisbio, 64BDCRBNPEG). First, a reagent in the kit was equilibrated to room temperature and diluted to 1 fold with double-distilled water, and both the reagent and samples were uniformly mixed by thorough vortexing for later use. An europium-labeled specific GST antibody and an XL665-labeled thalidomide-red reagent (Cisbio, Cat No. 64BDCRBNPEG) were mixed in equal volumes in advance and then added into a 384-well white microplate at 10 μL per well. […] After uniform mixing, contents in the 384-well plate were sealed and incubated in the dark at room temperature for 3 hours.

[6] = clinical phase I trial, combined with dexamethasone, RRMM patients; cited from earlier work
[7] = GST-labeled CRBN WT protein, thalidomide-red competition, 3 hours, read-out: HTRF CRBN IC50

Row | DC50 [1] [nM] | Dmax [1] [%] | DC50 [2] [nM] | Dmax [2] [%] | pIC50 [3] | pIC50 [5, 7] | Compound | incidence rate of G3/G4 neutropenia [4] | pIC50 [5] | objective response rate (ORR) [6] [%]
1 | 0.34 | 77 | 0.16 | 75 | 11.00 |  | Cc1nc(N2CCN(Cc3ccc(Cc4ccc5c6c(cccc46)C(=O)N5[C@@H]4CCC(=O)NC4=O)cc3)CC2)cc(-n2cnc(C(F)(F)F)c2)n1 [Example 31, (R)-3-(6-(4-((4-(2-methyl-6-(4-(trifluoromethyl)-1H-imidazol-1-yl)pyrimidin-4-yl)piperazin-1-yl)methyl)benzyl)-2-oxobenzo[cd]indol-1(2H)-yl)piperidin-2,6-dione] |  |  | 
2 | 0.1 | 65.3 | 0.056 | 76.4 | 10.70 | 7.70 | Cc1nnc(-c2cccc(N3CCN(Cc4ccc(Cc5ccc6c7c(cccc57)C(=O)N6C5CCC(=O)NC5=O)cc4)CC3)n2)s1 (centres unmarked) [Example 22, 3-(6-(4-((4-(6-(5-methyl-1,3,4-thiadiazol-2-yl)pyridin-2-yl)piperazin-1-vA)methyl)benzyl)-2-oxobenzo[cd]indol-1(2H)-yl)piperidin-2,6-dione] |  |  | 
3 | 0.98 | 60 | 0.075 | 76.2 | 10.40 | 7.42 | O=C1CCC(N2C(=O)c3cccc4c(Cc5ccc(CN6CCN(c7ccnc(-n8cnc(C(F)(F)F)c8)n7)CC6)cc5)ccc2c34)C(=O)N1 (centres unmarked) [Example 25, 3-(2-oxo-6-(4-((4-(2-(4-(trifluoromethyl)-1H-imidazol-1-yl)pyrimidin-4-yl)piperazin-1-yl)methyl)benzyl)benzo[cd]indol-1(2H)-yl)piperidin-2,6-dione] |  |  | 
4 | 0.077 | 65.8 | 0.036 | 77.1 | 11.00 | 7.72 | Cc1ncn(-c2cccc(N3CCN(Cc4ccc(Cc5ccc6c7c(cccc57)C(=O)N6C5CCC(=O)NC5=O)cc4)CC3)n2)n1 (centres unmarked) [Example 23, 3-(6-(4-((4-(6-(3-methyl-1H-1,2,4-triazol-1-yl)pyridin-2-yl)piperazin-1-yl)methyl)benzyl)-2-oxobenzo[cd]indol-1(2H)-yl)piperidin-2,6-dione] |  |  | 
5 | 8.86 | 57.1 | 0.22 | 74.1 | 9.70 | 7.47 | Cc1ncc(-c2nc(N3CCN(Cc4ccc(Cc5ccc6c7c(cccc57)C(=O)N6C5CCC(=O)NC5=O)cc4)CC3)cc(C(F)(F)F)n2)s1 (centres unmarked) [Example 21, 3-(6-(4-((4-(2-(2-methylthiazol-5-yl)-6-(trifluoromethyl)pyrimidin-4-yl)piperazin-1-yl)methyl)benzyl)-2-oxobenzo[cd]indol-1(2H)-yl)piperidin-2,6-dione] |  |  | 
6 | 0.38 | 73.6 | 0.19 | 70.3 | 10.52 |  | O=C1CCC(N2C(=O)c3cccc4c(Cc5ccc(CN6CCN(C(=O)c7cccc(-n8ccnc8)n7)CC6)cc5)ccc2c34)C(=O)N1 (centres unmarked) [Example 4, 3-(6-(4-((4-(6-(1H-imidazol-1-yl)pyridin-2-carbonyl)piperazin-1-yl)methyl)benzyl)-2-oxobenzo[cd]indol-1(2H)-yl)piperidin-2,6-dione] |  |  | 
7 |  |  |  |  | 10.70 |  | Cc1nc(N2CCN(Cc3ccc(Cc4ccc5c6c(cccc46)C(=O)N5C4CCC(=O)NC4=O)cc3)CC2)cc(-n2cnc(C(F)(F)F)c2)n1 (centres unmarked) [Example 29, 3-(6-(4-((4-(2-methyl-6-(4-(trifluoromethyl)-1H-imidazol-1-yl)pyrimidin-4-yl)piperazin-1-yl)methyl)benzyl)-2-oxobenzo[cd]indol-1(2H)-yl)piperidin-2,6-dione] |  |  | 
8 | 0.081 | 73.6 | 0.05 | 76.6 | 11.52 |  | O=C1CCC(N2C(=O)c3cccc4c(Cc5ccc(CN6CCN(c7ccnc(-n8ccnc8)n7)CC6)cc5)ccc2c34)C(=O)N1 (centres unmarked) [Example 3, 3-(6-(4-((4-(2-(1H-imidazol-1-yl)pyrimidin-4-yl)piperazin-1-yl)methyl)benzyl)-2-oxobenzo[cd]indol-1(2H)-yl)piperidin-2,6-dione] |  |  | 

The remaining lines, values behind:

Row | Compound | DC50 [1] [nM] | Dmax [1] [%] | DC50 [2] [nM] | Dmax [2] [%] | pIC50 [3] | pIC50 [5, 7] | incidence rate of G3/G4 neutropenia [4] | pIC50 [5] | objective response rate (ORR) [6] [%]
9 | O=C1CCC(N2C(=O)c3cccc4c(Cc5ccc(CN6CCN(C(=O)c7ccnc(-n8ccnc8)n7)CC6)cc5)ccc2c34)C(=O)N1 (centres unmarked) [Example 5, 3-(6-(4-((4-(2-(1H-imidazol-1-yl)pyrimidin-4-carbonyl)piperazin-1-yl)methyl)benzyl)-2-oxobenzo[cd]indol-1(2H)-yl)piperidin-2,6-dione] | 0.23 | 68.4 | 0.12 | 73.8 | 10.22 |  |  |  | 
10 | Nc1cccc2c1C(=O)N(C1CCC(=O)NC1=O)C2=O (centres unmarked) [pomalidomide] |  |  |  |  |  |  | approximately 50% |  | 
11 | Cc1nc(N2CCN(Cc3ccc(Cc4ccc5c6c(cccc46)C(=O)N5[C@H]4CCC(=O)NC4=O)cc3)CC2)cc(-n2cnc(C(F)(F)F)c2)n1 [Example 30, (S)-3-(6-(4-((4-(2-methyl-6-(4-(trifluoromethyl)-1H-imidazol-1-yl)pyrimidin-4-yl)piperazin-1-yl)methyl)benzyl)-2-oxobenzo[cd]indol-1(2H)-yl)piperidin-2,6-dione] | 0.37 | 74.1 | 0.093 | 73.2 | 11.00 | 7.57 |  |  | 
12 | Nc1cccc2c1CN(C1CCC(=O)NC1=O)C2=O (centres unmarked) [lenalidomide] |  |  |  |  |  |  | up to 35% |  | 
13 | N#Cc1ccc(N2CCN(Cc3ccc(COc4cccc5c4CN([C@H]4CCC(=O)NC4=O)C5=O)cc3)CC2)c(F)c1 [CC-92480, reference compound] |  |  |  |  |  |  |  | 6.97 | 54.4
14 | Cc1ncn(-c2cccc(N3CCN(Cc4ccc(Cc5ccc6c7c(cccc57)C(=O)N6[C@H]5CCC(=O)NC5=O)cc4)CC3)n2)n1 [Example 37, (S)-3-(6-(4-((4-(6-(3-methyl-1H-1,2,4-triazol-1-yl)pyridin-2-yl)piperazin-1-yl)methyl)benzyl)-2-oxobenzo[cd]indol-1(2H)-yl)piperidin-2,6-dione] |  |  |  |  | 11.00 | 8.10 |  |  | 
15 | O=C1CC[C@H](N2Cc3c(OCc4ccc(CN5CCN(c6ccnc(-n7ccnc7)n6)CC5)cc4)cccc3C2=O)C(=O)N1 [Example 1, (S)-3-(4-((4-((4-(2-(1H-imidazol-1-yl)pyrimidin-4-yl)piperazin-1-yl)methyl)benzyl)oxy)-1-oxoisoindolin-2-yl)piperidin-2,6-dione] | 0.31 | 75.8 | 0.12 | 71.4 | 10.52 |  |  |  | 
16 | O=C1CC[C@H](N2Cc3c(OCc4ccc(CN5CCN(c6ccnc(-c7cncs7)n6)CC5)cc4)cccc3C2=O)C(=O)N1 [Example 80, (S)-3-(1-oxo-4-((4-((4-(2-(thiazol-5-vi)pyrimidin-4-yl)piperazin-1-yl)methyl)benzyl)oxy)isoindolin-2-yl)piperidin-2,6-dione] |  |  |  |  | 9.40 |  |  |  | 
17 | O=C1CCC(N2C(=O)c3cccc4c(Cc5ccc(CN6CCN(c7nc(-c8cncs8)ncc7F)CC6)cc5)ccc2c34)C(=O)N1 (centres unmarked) [Example 60, 3-(6-(4-((4-(5-fluoro-2-(thiazol-5-yl)pyrimidin-4-yl)piperazin-1-yl)methyl)benzyl)-2-oxobenzo[cd]indol-1(2H)-yl)piperidin-2,6-dione] |  |  |  |  | 10.52 |  |  |  | 
18 | Cc1nc(N2CCN(Cc3ccc(Cc4ccc5c6c(cccc46)C(=O)N5C4CCC(=O)NC4=O)cc3)CC2)cc(-n2cnc(C)n2)n1 (single isomer, unassigned) [Example 47] |  |  |  |  | 10.70 |  |  |  | 
